From US20220016063A1, “COMPOSITIONS THAT ENHANCE IRON ABSORPTION AND METHODS OF USE THEREOF” (UNIVERSITY OF FLORDIA RESEARCH FOUNDATION, INCORPORATED, priority 2018, published 2022)

Experiments:
[1] = test system: duodenal epithelial organ cultures; test: Ussing chamber 59Fe flux studies; set-up: species or system Swiss-Webster mice; details: compared to the other single AAs
Protocol: Ussing chamber technology was utilized to measure Fe flux in the presence of AA formulations. The Ussing chamber was balanced for at least 30 minutes prior to mounting duodenal mouse tissues. Tissues were bathed bilaterally in 10 mL of control or AA-containing buffers, containing 1.5 mM FeSO4.7H2O (“cold” Fe), and were bubbled with a 95% O2 and 5% CO2 gas mixture. Experiments were performed under conditions in which the voltage was clamped to zero, so that there was no net passive diffusion of ions and no driving force for paracellular flux. Duodenal epithelial organ cultures were mounted and equilibrated for approximately 10 minutes and were paired for mucosal-to-serosal and serosal-to-mucosal flux based on similar conductance values. Blank measurements (500 μL) were collected from the “cold” (non-radioactive) side. 15 μCi of ^59Fe (PerkinElmer, catalog #NEZ037500UC) neutralized with N-methyl-D-glucamine (NMDG) was added to each chamber, on either the mucosal or serosal side, depending upon tissue pairing. At 15-minute intervals, 500 μL samples were collected from the “cold” side for 60 minutes, and 500 μL buffer were added back to maintain a fixed volume. […] Radioactivity in the samples was measured using a PerkinElmer gamma counter, and net Fe flux was calculated as Jnet=Jms−Jsm, where Jms is mucosal to serosal flux (absorption) and Jsm is serosal to mucosal flux (secretion). […]

DMT1 = test: Ligated duodenal loop studies, DMT1 Western blot of BBMV; set-up: species or system Swiss-Webster mice; details: single AA formulation pH 6.5 in duodenal loop, 45 min 37 °C; relative to control (expression set to 1)
Protocol: Blind loop studies were conducted on 8-10-week-old male Swiss-Webster mice, as they are a commonly used outbred strain. Males were selected for initial screening purposes, but experiments will be repeated in female mice. Mice were sacrificed and duodenal segments (approximately […]) were isolated and flushed with Ringer's buffer. […] After incubation, the luminal liquid was released. […] A standard protocol for isolating BBM protein was performed for Western blot analysis (described below).
Isolation of Brush-Border Membrane Vesicles (BBMV): A light scrape of the duodenal mucosal was placed in 9.9 mL ice-cold lysis buffer with 0.1 mL Halt Protease Inhibitor Cocktail, EDTA-free 100×. Samples were homogenized on ice using an IKA T25 Ultra Turrax device for 2 min. Following homogenization, 500 μL 1 M MgCl2 was added and the sample was rotated at 4° C. for 10 minutes. Samples were then centrifuged at 10,000 rpm for 25 min using a JA-12 rotor in a Beckman-Coulter ultracentrifuge. The supernatant was transferred to new round-bottom tubes and centrifuged again at 19,000 rpm for 40 minutes using a JA-17 rotor. The remaining pellet after the second centrifugation step contained the BBMVs. The pellet was dissolved in 50 μL Ringer's buffer with protease inhibitor at a final concentration of 1×.
Sodium Dodecyl Sulfate-Polyacrylamide Gel Electrophoresis (SDS-PAGE): Protein samples, each containing 30 μg protein, were mixed with 4× Laemmli buffer and 1 M dithiolthreitol (ratio of buffer to DTT was 20:1) and incubated at 37° C. for 30 minutes. 30 μg of protein was then loaded into each lane of 8% polyacrylamide gels. SDS-PAGE was run at 90 V for 30 minutes and increased to 120 V for the duration of the electrophoresis.
Western Blot: Proteins in gels were transferred to PVDF membranes at 60 V for two hours. […] Membranes were then incubated with DMT1 primary antibody (courtesy of François Canonne-Hergaux, French Institute of Health and Medical Research, Bordeaux, France) at a 1:2000 dilution in Odyssey blocking buffer at 4° C. for at least 16 hours. Blots were rinsed with TBST for 15 minutes under fast agitation for a total of three washes. […] Blots were again rinsed with TBST for 15 minutes under fast agitation for a total of three washes. Blots were subsequently imaged and protein band signals were quantified with a Licor Odyssey CLx immunofluorescent instrument. Protein band intensities were then normalized to total protein of each lane stained with Coomassie (Gel Analyzer software) and all data was normalized to respective control lanes on the same blot.

[2] = test system: Swiss-Webster mice on an Fe-deficient diet; test: Iron depletion-repletion study (blood hemoglobin); assay type: in vivo; details: males, 6.3 mM FeSO4 in control formulation, daily 200 μL gavage, 14 days
Protocol: To establish the amount of iron needed to steadily replete a mouse, the concentration was determined theoretically to be 3.15 mM in a 200 μL gavage dose, based on daily food intake and iron requirement of a rodent (35 mg/kg Fe). Two additional concentrations were included in this study: 1.575 mM and 6.3 mM, which are half and double the theoretical concentration, respectively. A control group was given 0 mM Fe gavage on chow diet to obtain normal Hb values. The Fe was dissolved in control formulation (Table 3). Three-week-old male and female Swiss-Webster mice were placed on an Fe-deficient diet in wire-overhang cages for two weeks. After two weeks baseline hemoglobin (Hb) was measured. Daily gavage began in the evening for 14 days. An additional trial included FeSO4 and ferrous fumarate at 6.3 mM and 12.6 mM per iron source, along with a control group with 0 mM Fe gavage on control diet (50 ppm Fe).
Three-week-old male and female Swiss-Webster mice were placed on an Fe-deficient diet for two weeks. After two weeks baseline hemoglobin (Hb) was measured and mice were randomized into groups so that average starting Hb values are similar. They were gavaged every evening after a 1.5 hour fast (just before the “active” phase) with a 200 μL volume containing 6.3 mM FeSO4 in control or 4 AA formulations. […] Hemoglobin was measured every three days to track repletion. […]

Row | Structure (SMILES) | relative DMT1 protein expression on the BBM (DMT1) | also measured
1 | NC(=O)CC[C@H](N)C(=O)O [glutamine] |  | net Fe flux with individual AAs from the 4 AA formulation [1]: lowest flux
2 | CC(C)[C@H](N)C(=O)O [valine] | lowest relative DMT1 protein expression | 
3 | N[C@@H](Cc1ccc(O)cc1)C(=O)O [tyrosine] | lowest relative DMT1 protein expression | 
4 | N[C@@H](CO)C(=O)O [serine] | lowest relative DMT1 protein expression | 
5 | O.O.O.O.O.O.O.O=S(=O)([O-])[O-].[Fe+2] [FeSO4] |  | blood hemoglobin during repletion [2]: steady increase
6 | NCCCC[C@H](N)C(=O)O [lysine] | lowest relative DMT1 protein expression | 
7 | C[C@@H](O)[C@H](N)C(=O)O [threonine] | lowest relative DMT1 protein expression | 
